Laboratory results published in US8143212B2 (Vicuron Pharmaceuticals Inc., priority 2002, dated 2012).
Converted amounts (≈) assume the structure as drawn. Read-outs that look alike come from different tables or passages of the source.

Experiments:
Staph. aureus = test: ED50 against Staph. aureus murine septicaemias (Table 2); format: in vivo; settings: Staphylococcus aureus, MSSA, sc, 10 min
[1] = Pharmacokinetics and safety in subjects with renal impairment / ESRD (VER001-3, -11, -13); settings: for half-life: human, plasma, intravenous
Procedure: The peak concentrations (Cmax) were obtained directly from the observed data. The area under the plasma concentration-time curve (AUC) were calculated using the linear trapezoidal rule.
Clinical Study VER001-13 examined subjects with mild and moderate renal impairment and Clinical Study VER001-1 examined subjects with severe renal impairment and subjects with end-stage renal disease (ESRD). Matched control subjects were enrolled in all studies. […] Subjects with ESRD were dependent on dialysis through the course of the study (3 times weekly).

human α-glycoprotein = settings: pH 7.4
Procedure: Integrated heat effects, after correction for heats of dilution, were analyzed by non-linear regression using a simple single-site binding model with the standard Microcal ORIGIN software package. Raw data (μcal/sec) for each injection were integrated to give the total heat effect per addition, then divided by amount of injectant to give kcal/mole of injectant. The same integration was applied for control dilution effects, and this was subtracted from the actual titration data. This provided a differential of the binding curve in which the extent of binding is proportional to the total heat liberated (or absorbed). This was then analyzed by non-linear regression methods in terms of various standard binding models. The simplest model assumes simple non-competitive binding equilibrium, and gives three parameters:

[2] = rat, in vivo
Procedure: (§2) Excreta and more than 40 different tissues were collected through 70 days post-administration, and the tissue distribution and pharmacokinetics of drug-derived radioactivity were determined.
Following dose administration, urine and feces were collected at 24 hour intervals to 14, 36, and 70 days after the dose (3 rats/final collection time). Water and methanol cage washes were also collected. Carcasses were analyzed at the end of the collection period. All samples were analyzed for total radioactivity content by liquid scintillation counting (LSC).

[3] = Pharmacokinetics and renal excretion in healthy subjects, single 1000 mg IV; format: in vivo, human; settings: for t1/2: healthy subjects, single 1000 mg IV
Procedure: Blood samples were drawn into heparinized tubes and centrifuged. Plasma was separated and stored frozen at −20° C. until time of assay. Plasma and urine samples were assayed for dalbavancin using validated LC/MS/MS methods. […] The peak concentration (Cmax) values were obtained directly from the observed data. The area under the plasma concentration-time curve (AUC) was calculated using the linear trapezoidal rule. Clearance (CL) was computed as dose/AUC. The elimination half life (t1/2) was estimated by linear regression of the log-linear portion of the log concentration versus time curve. Estimates of the volume of distribution (VZ) was calculated using the regression parameters, while the volume of distribution at steady state (VSS) was calculated from the area under the first moment curve (AUMC) multiplied by the dose and divided by AUC. The cumulative amount of dalbavancin excreted in urine was determined as the integrand of the urine excretion rate (AURC). CLR, or renal clearance, was calculated as the ratio: CLR=AURC/AUC.

S. pneumoniae = test: MIC by NCCLS microdilution of study organisms (Table 29); format: cell-based; settings: Streptococcus pneumoniae
Procedure: (§1) MICs were determined in MHB by standard NCCLS microdilution techniques. […] All MICs were performed at least in duplicate.

S. aureus = test: as above; format: cell-based
Procedure: as §1

[4] = Plasma pharmacokinetics in thigh-infected neutropenic mice; settings: intraperitoneal
Procedure: Neutropenia in this and all other studies was produced by injections of cyclophosphamide, 150 mg/kg 4 days prior to study, 100 mg/kg 1 day prior to study and 100 mg/kg every 48 h after start of infection until end of study. Neutrophil counts remained less than 100/mm^3 for the duration of study. Doses of 2.5, 5, 10, 20; 40, and 80 mg/kg were studied. Drug was administered by intraperitoneal injection of 0.2 ml volume. Blood was removed from groups of three mice by retroorbital aspiration into heparinized capillary tubes at 0.5, 1, 2, 4, 6, 24, 48, 72, and 96 hours after dosing. […] AUC was calculated by the trapezoidal rule from mean concentrations.

in vitro = format: cell-based, S. aureus; settings: mouse, serum
From the text: This degree of binding was considered in subsequent pharmacodynamic analyses. The degree of binding in human serum would be estimated to be 96%.

P aeruginosas = test: MIC, microbiological activity (Table 3); format: cell-based; settings: L 4 P aeruginosas ATCC10145; read-out: MIC
[5] = rat, in vivo; remark: listed apart in the source
Procedure: as §2
Rats (3 per time-point) were euthanized at 12, 24, 48, 72, 96, 120, 144, 168, 336, 840, 1176 and 1680 hours post dose for collection of blood, plasma, and tissues (including carcass). All samples were analyzed by LSC.
As part of the QTD studies, bile samples were collected from bile duct cannulated rats (4 animals) through 384 h (16 days) post-dose.

clinical = settings: human, in vivo
From the text: The study enrolled otherwise healthy subjects with mild, moderate, or severe hepatic impairment (Child-Pugh scores 5 to 6, 7 to 9, and 10 to 15, respectively) and matched control subjects with normal hepatic function.

Gram-positive pathogen = test: Phase II SSTI trial: microbiological response; format: in vivo, human; settings: for Success Rate by Pathogen: Microbiologically ITT Population at FU; for eradication/presumed eradication rate, all organisms: FU assessment
Procedure: There were 62 patients randomized into the study; all received at least one dose of study medication. Four study populations were evaluated for safety and efficacy and were defined as follows: The intent-to-treat (ITT) population included all patients who received at least one dose of study drug (all randomized study subjects).
Microbiological outcome, a secondary efficacy variable, was assessed in the subpopulation of patients who had microbiologically documented SSTI (i.e., at least one identified baseline pathogen). A microbiologic response was assessed for each Gram-positive pathogen identified at baseline (i.e., eradication, presumed eradication, persistence, presumed persistence). For patients for whom follow-up cultures were not performed, the microbiologic responses for baseline pathogens were presumed on the basis of the clinical response. Microbiologic response by patient at the EOT and FU visits was graded as success (i.e., all Gram-positive organisms eradicated or presumed eradicated) or failure (i.e., at least one Gram-positive organism persisted or presumed to have persisted, multiple pathogens with partial eradication). At both the EOT and FU visits, colonization and superinfection were assessed. At the FU visit, a patient's bacteriological response could also include recurrence.

E coli = test: MIC, microbiological activity (Table 3); format: cell-based
C albicans = test: MIC, microbiological activity (Table 3); format: cell-based; settings: L 145 C albicans SKF2270; read-out: MIC
[6] = Staphylococcus aureus, MRSA, S. aureus strain MRSA
[7] = Staphylococcus aureus, S. aureus strain Smith

CN[C@H]1C(=O)N[C@@H]2Cc3ccc(cc3)Oc3cc4cc(c3O[C@@H]3O[C@H](C(=O)O)[C@@H](O)[C@H](O)[C@H]3NC(=O)CCCCCCCCC(C)C)Oc3ccc(cc3Cl)[C@@H](O)[C@@H]3NC(=O)[C@H](NC(=O)[C@@H]4NC(=O)[C@@H](NC2=O)c2cc(cc(O)c2Cl)Oc2cc1ccc2O)c1ccc(O)c(c1)-c1c(O[C@H]2O[C@H](CO)[C@@H](O)[C@H](O)[C@@H]2O)cc(O)cc1[C@@H](C(=O)NCCCN(C)C)NC3=O [Dalbavancin]
ED50 (Staph. aureus): 0.05 mg/kg | half-life ([1]; 500 mg, t1/2, ESRD Postdialysis (N = 3), VER001-11, single dose 500 mg): 14.5 days | half-life ([1]; 500 mg, t1/2, ESRD Predialysis (N = 3), VER001-11, single dose 500 mg): 15.7 days | half-life ([1]; 500 mg, t1/2, Normal Renal Function (N = 6), VER001-11, single dose 500 mg): 13.9 days | half-life ([1]; 500 mg, t1/2, Severe Renal Impairment (N = 6), VER001-11, single dose 500 mg): 18.9 days | half-life ([1]; 1000 mg, t1/2, Mild Renal Impairment (N = 6), VER001-13, single dose 1000 mg): 16.2 days | half-life ([1]; 1000 mg, t1/2, Moderate Renal Impairment (N = 6), VER001-13, single dose 1000 mg): 18 days | half-life ([1]; 1000 mg, t1/2, Normal Renal Function (N = 9), VER001-13, single dose 1000 mg): 17.4 days | half-life ([1]; 1000 mg, t1/2, Severe Renal Impairment (N = 4), VER001-11, single dose 1000 mg): 19.5 days | half-life ([1]; 1120 mg, t1/2, Normal Renal Function (N = 3), VER001-2, single dose 1120 mg): 6.21 days | increase in concentrations vs normal renal function ([1]; severe renal impairment, through the first week post-dose): ≤ 40% | Calculated percent Binding (human α-glycoprotein; 1 μM): 73.0% | Calculated percent Binding (human α-glycoprotein; 10 μM): 68.2% | Calculated percent Binding (human α-glycoprotein; 100 μM): 26.2% | Calculated percent Binding (human α-glycoprotein; 165 μM): 16.9% | Calculated percent Binding (human α-glycoprotein; 250 μM): 11.4% | Calculated percent Binding (human α-glycoprotein; 500 μM): 5.9% | dose remaining in the carcass ([2]; male, Sprague-Dawley, 1680 h): 4.5 % of the dose | share of excreted radioactivity eliminated in feces ([2]; iv, 20 mg/kg): ⅓ | share of excreted radioactivity eliminated in urine ([2]; iv, 20 mg/kg): ⅔ | t1/2 ([3]; Max): 11.8 days | t1/2 ([3]; Min): 9.46 days | peak concentration ([3]; both, human, in vivo): ~165 µM | MIC (S. pneumoniae; S. pneumoniae SP1396): 0.008 µg/mL (≈ 0.0044 µM) | MIC (S. pneumoniae; S. pneumoniae strain 1199, read-out: MIC): 0.004 µg/mL (≈ 0.0022 µM) | MIC (S. pneumoniae; S. pneumoniae strain 1293, read-out: MIC): 0.004 µg/mL (≈ 0.0022 µM) | MIC (S. pneumoniae; S. pneumoniae strain 1325, read-out: MIC): 0.008 µg/mL (≈ 0.0044 µM) | MIC (S. pneumoniae; S. pneumoniae strain 1329, read-out: MIC): 0.008 µg/mL (≈ 0.0044 µM) | MIC (S. pneumoniae; S. pneumoniae strain 10813, read-out: MIC): 0.03 µg/mL (≈ 0.0165 µM) | MIC (S. pneumoniae; five pneumococcal organisms, read-out: MICs): 0.004 to 0.03 µg/mL (≈ 0.0022 to 0.0165 µM) | MBC (S. aureus; S. aureus strain 25923): 0.25 µg/mL (≈ 0.138 µM) | MIC (S. aureus; S. aureus strain MRSA): 0.06 µg/mL (≈ 0.033 µM) | MBC (S. aureus; S. aureus strain Smith): 0.25 µg/mL (≈ 0.138 µM) | MIC (S. aureus; S. aureus strain Smith): 0.12 µg/mL (≈ 0.0661 µM) | MBC (S. aureus; [6]): 0.25 µg/mL (≈ 0.138 µM) | MIC (S. aureus; [6]): 0.12 µg/mL (≈ 0.0661 µM) | MBC (S. aureus; Staphylococcus aureus, S. aureus strain 25923): 0.5 µg/mL (≈ 0.275 µM) | MIC (S. aureus; Staphylococcus aureus, S. aureus strain 31005): 0.06 µg/mL (≈ 0.033 µM) | MBC (S. aureus; Staphylococcus aureus, S. aureus strain 33591): 0.25 µg/mL (≈ 0.138 µM) | MIC (S. aureus; Staphylococcus aureus, S. aureus strain 307109): 0.06 µg/mL (≈ 0.033 µM) | MBC (S. aureus; [7]): 0.5 µg/mL (≈ 0.275 µM) | MIC (S. aureus; [7]): 0.06 µg/mL (≈ 0.033 µM) | MIC (S. aureus; Staphylococcus aureus, read-out: MICs, six S. aureus isolates): 0.06 to 0.12 µg/mL (≈ 0.033 to 0.0661 µM) | time of peak levels [4]: 4 to 6 h | fraction unbound (in vitro): 0.004 | MIC (P aeruginosas): > 32 µg/mL | blood to plasma ratio of drug-derived radioactivity ([5]; male, Sprague-Dawley): < 1 | recovered radioactivity in any single tissue ([5]; male, Sprague-Dawley, 5 days): < 5 % of the dose | administered radioactivity retained in carcass ([5]; male, Sprague-Dawley, 70 days): 2.34% | time to maximum concentration (Cmax) in most tissues [5]: ≤ 24 h | clearance (clinical; CL): 0.777 mL/min | Vd (clinical; Vss): 18.1 L | S. aureus eradication rate (Gram-positive pathogen; FU, single-dose): 50% | S. aureus eradication rate (Gram-positive pathogen; FU, two-dose): 90% | Microbiologic Success Rate (Gram-positive pathogen; MITT population, EOT, Single-dose (1100 mg)): 5/14 (35.7) % | Microbiologic Success Rate (Gram-positive pathogen; MITT population, EOT, Two-dose (1000/500 mg)): 10/13 (76.9) % | Microbiologic Success Rate (Gram-positive pathogen; MITT population, FU, Single-dose (1100 mg)): 3/14 (21.4) % | Microbiologic Success Rate (Gram-positive pathogen; MITT population, FU, Two-dose (1000/500 mg)): 9/13 (69.2) % | MRSA eradication rate (Gram-positive pathogen; MITT population, single-dose): 50% | MRSA eradication rate (Gram-positive pathogen; MITT population, two-dose): 80% | Success Rate by Pathogen (Gram-positive pathogen; Methicillin-resistant S. aureus, Single-dose (1100 mg)): 3/6 (50%) | Success Rate by Pathogen (Gram-positive pathogen; Methicillin-resistant S. aureus, Two-dose (1000/500 mg)): 4/5 (80%) | Microbiologic Success Rate (Gram-positive pathogen; Microbiologically evaluable population, EOT, Single-dose (1100 mg)): 5/13 (38.5) % | Microbiologic Success Rate (Gram-positive pathogen; Microbiologically evaluable population, EOT, Two-dose (1000/500 mg)): 8/11 (72.7) % | Microbiologic Success Rate (Gram-positive pathogen; Microbiologically evaluable population, FU, Single-dose (1100 mg)): 3/11 (27.3) % | Microbiologic Success Rate (Gram-positive pathogen; Microbiologically evaluable population, FU, Two-dose (1000/500 mg)): 8/11 (72.7) % | Success Rate by Pathogen (Gram-positive pathogen; Total organisms, Two-dose (1000/500 mg)): 14/16 (87.5%)^ | microbiologic success rates (Gram-positive pathogen; both visits (EOT and FU), single dose): < 40% | Microbiologic Success Rate (Gram-positive pathogen; microbiologically-evaluable population, EOT, single-dose): 38.5% | Microbiologic Success Rate (Gram-positive pathogen; microbiologically-evaluable population, EOT, two-dose): 72.7% | eradication/presumed eradication rate, all organisms (Gram-positive pathogen; microbiologically-evaluable population, single-dose): 58% | eradication/presumed eradication rate, all organisms (Gram-positive pathogen; microbiologically-evaluable population, two-dose): 92% | Microbiologic Success Rate (Gram-positive pathogen; microbiologically-evaluable population, FU, single-dose): 27.3% | Microbiologic Success Rate (Gram-positive pathogen; microbiologically-evaluable population, FU, two-dose): 72.7% | MIC (E coli; G 16440 E coli iperperm): 8 µg/mL (≈ 4.4 µM) | MIC (E coli; L 47 E coli SKF12140, read-out: MIC): > 32 µg/mL | MIC (C albicans): > 32 µg/mL
